The subject of the assay is GluR2-lacking AMPA receptors. Particulars: injection into accumbens 15 min before extinction test.

Where two headings read alike, the source gives them in different places.

Procedure: Male rats were trained to nose-poke (biochemical and electrophysiology experiments) or lever-press (Naspm accumbens injections experiment) for 6-h/day for 10-12 days; each cocaine infusion was paired with a tone-light or light cue. After self-administration training, the rats were tested for cue-induced cocaine-seeking after 1 or 45 withdrawal days. During testing, lever or nose-poke responding led to contingent presentations of the cue previously paired with cocaine infusions, but not cocaine. Responding on the previously active lever or hole was the operational measure of cocaine-seeking.
The rats were anesthetized using isoflurane gas (Henry Schein, Melville, N.Y.) and flunixin meglumine was administered before surgery (2 mg/kg, i.p.) as an analgesic. A silastic catheter was inserted into the right auricle through the external jugular vein, passed under the skin and fixed in the mid-scapular region. The rats recovered from surgery for at least seven days prior to beginning self-administration training sessions. During this time, catheters were flushed every 24-48 h with sterile 0.9% saline. […]

In the case of `Cl.Cl.Cl.NCCCNCCCCNCCCNC(=O)Cc1cccc2ccccc12` [Naspm, 1-Naphthylacetyl spermine trihydrochloride], the “cue-induced cocaine-seeking (responses on previously active lever)” value (withdrawal day 1) was “did not alter” and the “cue-induced cocaine-seeking (responses on previously active lever)” value (withdrawal day 45) was “significantly reduced”.

The values above are taken from patent US20100048722A1, “FORMATION OF ACCUMBENS GluR2-LACKING AMPA RECEPTORS MEDIATES […] COCAINE CRAVING” (ROSALIND FRANKLIN UNIVERSITY OF MEDICINE AND SCIENCE, priority 2008, published 2010).
